{"source": "patent US20230407243A1", "about": "“GENETIC PLATFORM TO INVESTIGATE THE FUNCTIONS OF BACTERIAL DRUG EFFLUX PUMPS” (priority 2022, published 2023)", "assay_type_in_all_cases": "cell-based, Escherichia coli", "key": {"ΔtolC-Pore": {"test_system": "ΔtolC-Pore", "experimental": "(§1) Synergy measurement using checkerboard analysis was performed in 96-well microtiter plates using the microdilution broth method, according to CLSI guidelines (Patel J. B., 2015). The cell inocula were prepared using the colony resuspension method. The minimum inhibitory concentrations (MICs) were defined as the lowest concentration that provided no growth, as determined by measurement of the OD600nm using a Synergy H1 microplate reader (BioTek). Susceptibility testing was performed in MHB II with a final volume of 100 μL. PAI3N (Bachem Americas) was solubilized in MHB II. […] Solvent controls were included in each plate.\n(§2) The Fractional Inhibitory Concentration Index (FICI) was used to assess the synergy of PAI3N in combination with different antibiotics. The FICI represents the ΣFIC of each drug. The FICI for each drug was calculated using the following formula: FICI=FICA+FICB=(CA/MICA)+(CB/MICB). Where MICA and MICB are the MICs of drugs A (PAI3N/NMP) and B (antibiotic) alone, and CA and CB are the MICs of the drugs in combination. The effects of PAβN or NMP in combination with antibiotics were classified as: synergistic (FICI<0.5), additive (FICI>0.5-1.0), indifferent (FICI>1.0-2.0), and antagonistic (FICI>2.0). Fold increases in resistance provided by efflux pumps were calculated by dividing the MIC values of strains expressing efflux pumps by the MIC value of EKO-35."}, "wild-type E. coli K-12": {"test_system": "wild-type E. coli K-12", "details": "K-12", "experimental": "as §1, §2"}, "ΔtolC": {"test_system": "ΔtolC", "details": "ΔtolC", "experimental": "as §1, §2"}, "EKO-35": {"test_system": "EKO-35", "experimental": "as §1, §2"}, "EKO-35 acrBD408A": {"test_system": "EKO-35 acrBD408A", "details": "EKO-35 acrBD408A", "experimental": "as §1, §2"}, "[1]": {"test_system": "EKO-35 porinated strain expressing acrD", "assay": "Checkerboard synergy (FICI), porinated strain", "details": "EKO-35 acrD Pore; NMP alone, one value per checkerboard", "experimental": "as §1, §2"}, "[2]": {"test_system": "EKO-35-Pore acrBD408A (functionally inactive AcrB variant)", "assay": "Checkerboard synergy (FICI), porinated strain", "details": "EKO-35 acrBD408A Pore; with Ciprofloxacin", "experimental": "as §1, §2"}, "[3]": {"test_system": "EKO-35-Pore strains producing other efflux pumps", "assay": "Checkerboard synergy (FICI), porinated strain", "details": "EKO-35 mdtEF Pore; NMP alone, one value per checkerboard", "experimental": "as §1, §2"}, "[4]": {"test_system": "EKO-35 porinated strain expressing acrB", "assay": "Checkerboard synergy (FICI), porinated strain", "details": "EKO-35 acrB Pore", "experimental": "as §1, §2"}, "[5]": {"test_system": "EKO-35-Pore expressing the P. aeruginosa pump mexCD", "assay": "Checkerboard synergy (FICI), porinated strain", "details": "EKO-35 mexCD Pore; with Erythromycin", "experimental": "as §1, §2"}, "wild-type K-12-Pore": {"test_system": "wild-type K-12-Pore", "assay": "Checkerboard synergy (FICI), porinated strain", "details": "K-12 Pore", "experimental": "as §1, §2"}, "[6]": {"test_system": "EKO-35 porinated strain expressing acrF (AcrEF)", "assay": "Checkerboard synergy (FICI), porinated strain", "details": "EKO-35 acrEF Pore; with Fusidic Acid", "experimental": "as §1, §2"}, "EKO-35-Pore": {"test_system": "EKO-35-Pore", "assay": "Checkerboard synergy (FICI), porinated strain", "details": "EKO-35 Pore; with Ethidium Bromide", "experimental": "as §1, §2"}, "[7]": {"test_system": "EKO-35 strains producing different efflux pumps (EKO-35 araC::X)", "assay": "Checkerboard synergy (FICI) of PAβN or NMP with antibiotics", "experimental": "as §1, §2"}}, "note": "Several values for one entry are separate records, joined by “and”; a condition that tells them apart may be missing. Equal values may be shown once. Read-outs that look alike come from different tables or passages of the source."}
{"molecule": "c1ccc2c(CN3CCNCC3)cccc2c1", "note": "[NMP, 1-(1-naphthylmethyl)-piperazine]", "values": [{"measurement": "NMP MICa Alone", "setting": "ΔtolC-Pore; ΔtolC Pore, NMP alone, one value per checkerboard", "value": 512, "unit": "µg/mL"}, {"measurement": "NMP MICa Combined", "setting": "ΔtolC-Pore; ΔtolC Pore, with Erythromycin", "value": 256, "unit": "µg/mL"}, {"measurement": "NMP MICa Combined", "setting": "ΔtolC-Pore; ΔtolC Pore, with Ethidium Bromide", "value": 128, "unit": "µg/mL"}, {"measurement": "NMP MICa Combined", "setting": "ΔtolC-Pore; ΔtolC Pore, with Linezolid", "value": 256, "unit": "µg/mL"}, {"measurement": "NMP MICa Combined", "setting": "ΔtolC-Pore; δtolC Pore, with Ciprofloxacin", "value": 256, "unit": "µg/mL"}, {"measurement": "NMP MICa Combined", "setting": "ΔtolC-Pore; δtolC Pore, with Fusidic Acid", "value": 128, "unit": "µg/mL"}, {"measurement": "NMP MICa Combined", "setting": "ΔtolC-Pore; δtolC Pore, with Oxacillin", "value": 16, "unit": "µg/mL"}, {"measurement": "NMP MICa Combined", "setting": "wild-type E. coli K-12; with Ciprofloxacin", "value": 128, "unit": "µg/mL"}, {"measurement": "NMP MICa Combined", "setting": "wild-type E. coli K-12; with Erythromycin", "value": 128, "unit": "µg/mL"}, {"measurement": "NMP MICa Combined", "setting": "wild-type E. coli K-12; with Ethidium Bromide", "value": 64, "unit": "µg/mL"}, {"measurement": "NMP MICa Combined", "setting": "wild-type E. coli K-12; with Fusidic Acid", "value": 256, "unit": "µg/mL"}, {"measurement": "NMP MICa Combined", "setting": "wild-type E. coli K-12; with Linezolid", "value": 128, "unit": "µg/mL"}, {"measurement": "NMP MICa Combined", "setting": "wild-type E. coli K-12; with Oxacillin", "value": 64, "unit": "µg/mL"}, {"measurement": "NMP MICa Combined", "setting": "ΔtolC; with Ciprofloxacin", "value": 512, "unit": "µg/mL"}, {"measurement": "NMP MICa Combined", "setting": "ΔtolC; with Erythromycin", "value": 128, "unit": "µg/mL"}, {"measurement": "NMP MICa Combined", "setting": "ΔtolC; with Ethidium Bromide", "value": 32, "unit": "µg/mL"}, {"measurement": "NMP MICa Combined", "setting": "ΔtolC; with Fusidic Acid", "value": 256, "unit": "µg/mL"}, {"measurement": "NMP MICa Combined", "setting": "ΔtolC; with Linezolid", "value": 512, "unit": "µg/mL"}, {"measurement": "NMP MICa Combined", "setting": "ΔtolC; with Oxacillin", "value": 8, "unit": "µg/mL"}, {"measurement": "NMP MICa Alone", "setting": "EKO-35; EKO-35, NMP alone, one value per checkerboard", "value": "512 µg/mL and 1024 µg/mL"}, {"measurement": "NMP MICa Combined", "setting": "EKO-35; EKO-35, with Ciprofloxacin", "value": 512, "unit": "µg/mL"}, {"measurement": "NMP MICa Combined", "setting": "EKO-35; EKO-35, with Erythromycin", "value": 256, "unit": "µg/mL"}, {"measurement": "NMP MICa Combined", "setting": "EKO-35; EKO-35, with Ethidium Bromide", "value": 512, "unit": "µg/mL"}, {"measurement": "NMP MICa Combined", "setting": "EKO-35; EKO-35, with Fusidic Acid", "value": 256, "unit": "µg/mL"}, {"measurement": "NMP MICa Combined", "setting": "EKO-35; EKO-35, with Linezolid", "value": 16, "unit": "µg/mL"}, {"measurement": "NMP MICa Combined", "setting": "EKO-35; EKO-35, with Oxacillin", "value": 256, "unit": "µg/mL"}, {"measurement": "susceptibility to the efflux pump inhibitor alone, efflux-deficient strains vs wild-type", "setting": "EKO-35; efflux-deficient strains EKO-35, EKO-35 acrBD408A, ΔtolC", "value": "comparable to the wild-type strain"}, {"measurement": "NMP MICa Combined", "setting": "EKO-35 acrBD408A; with Ciprofloxacin", "value": 64, "unit": "µg/mL"}, {"measurement": "NMP MICa Combined", "setting": "EKO-35 acrBD408A; with Linezolid", "value": 8, "unit": "µg/mL"}, {"measurement": "NMP MICa Combined", "setting": "EKO-35 acrBD408A; with Oxacillin", "value": 1024, "unit": "µg/mL"}, {"measurement": "NMP MICa Alone", "setting": "[1]", "value": 256, "unit": "µg/mL"}, {"measurement": "NMP MICa Combined", "setting": "[2]", "value": 4, "unit": "µg/mL"}, {"measurement": "NMP MICa Alone", "setting": "[3]", "value": 256, "unit": "µg/mL"}, {"measurement": "NMP MICa Combined", "setting": "[4]; with Ethidium Bromide", "value": 32, "unit": "µg/mL"}, {"measurement": "NMP MICa Combined", "setting": "[4]; with Linezolid", "value": 64, "unit": "µg/mL"}, {"measurement": "NMP MICa Combined", "setting": "[5]", "value": 64, "unit": "µg/mL"}, {"measurement": "NMP MICa Combined", "setting": "wild-type K-12-Pore; with Linezolid", "value": 64, "unit": "µg/mL"}, {"measurement": "NMP MICa Combined", "setting": "wild-type K-12-Pore; with Oxacillin", "value": 8, "unit": "µg/mL"}, {"measurement": "NMP MICa Combined", "setting": "[6]", "value": 64, "unit": "µg/mL"}, {"measurement": "NMP MICa Combined", "setting": "EKO-35-Pore", "value": 4, "unit": "µg/mL"}, {"measurement": "NMP MICa Combined", "setting": "[7]; EKO-35 acrB, with Erythromycin", "value": 8, "unit": "µg/mL"}, {"measurement": "NMP MICa Combined", "setting": "[7]; EKO-35 acrB, with Linezolid", "value": 64, "unit": "µg/mL"}, {"measurement": "NMP MICa Combined", "setting": "[7]; EKO-35 acrEF, with Ciprofloxacin", "value": 64, "unit": "µg/mL"}, {"measurement": "NMP MICa Combined", "setting": "[7]; EKO-35 acrEF, with Oxacillin", "value": 64, "unit": "µg/mL"}, {"measurement": "NMP MICa Combined", "setting": "[7]; EKO-35 mdtEF, with Erythromycin", "value": 64, "unit": "µg/mL"}, {"measurement": "NMP MICa Combined", "setting": "[7]; EKO-35 mexCD, with Erythromycin", "value": 16, "unit": "µg/mL"}]}
